The source of these data is ChEMBL document CHEMBL2311248, “Discovery of potent myeloid cell leukemia 1 (Mcl-1) inhibitors using fragment-based methods and structure-based design” (J Med Chem, 2013).

Experiment [1] concerns the target Apoptosis regulator Bcl-2 (Homo sapiens, UniProt P10415).
In experiment [2] the target is Bcl-2-like protein 1 (Homo sapiens, UniProt Q07817).
Experiment [3] concerns the target Induced myeloid leukemia cell differentiation protein Mcl-1 (Homo sapiens, UniProt Q07820).

pKi: −log10 of the molar value.

Chain of Apoptosis regulator Bcl-2 (P10415 whole entry): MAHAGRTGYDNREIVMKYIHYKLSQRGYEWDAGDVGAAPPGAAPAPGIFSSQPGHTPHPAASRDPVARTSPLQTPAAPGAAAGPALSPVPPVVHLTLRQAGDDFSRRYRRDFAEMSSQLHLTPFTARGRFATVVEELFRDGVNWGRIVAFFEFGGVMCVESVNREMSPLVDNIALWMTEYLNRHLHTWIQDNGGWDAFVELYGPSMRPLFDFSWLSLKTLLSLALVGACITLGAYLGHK
Chain of Induced myeloid leukemia cell differentiation protein Mcl-1 (Q07820 whole entry): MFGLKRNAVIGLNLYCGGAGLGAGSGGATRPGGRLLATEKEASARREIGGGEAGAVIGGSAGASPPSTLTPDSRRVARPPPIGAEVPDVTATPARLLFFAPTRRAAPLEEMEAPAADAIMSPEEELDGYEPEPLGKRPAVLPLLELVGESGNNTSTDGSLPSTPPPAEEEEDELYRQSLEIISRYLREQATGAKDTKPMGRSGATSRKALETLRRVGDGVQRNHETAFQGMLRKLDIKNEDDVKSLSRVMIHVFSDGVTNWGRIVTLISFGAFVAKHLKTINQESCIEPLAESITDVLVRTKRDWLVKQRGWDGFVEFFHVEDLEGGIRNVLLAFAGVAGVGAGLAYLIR
Chain of Bcl-2-like protein 1 (Q07817 whole entry): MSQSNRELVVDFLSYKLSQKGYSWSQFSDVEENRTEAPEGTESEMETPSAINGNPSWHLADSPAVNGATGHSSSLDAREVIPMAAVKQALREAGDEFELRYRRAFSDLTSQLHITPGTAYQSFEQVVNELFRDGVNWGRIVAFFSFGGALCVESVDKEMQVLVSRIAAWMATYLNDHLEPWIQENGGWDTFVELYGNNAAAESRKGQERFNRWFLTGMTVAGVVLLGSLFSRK

On to `Cc1ccc2c(Cl)c(C(=O)O)sc2c1`, for which the pKi – broadly, the Ki on a negative log10 scale, so that one unit is a factor of ten – in experiment [1] was < 3.00; in experiment [2] it was 3.64.
On to `Cc1cc(OCCCc2c(C(=O)O)[nH]c3cc(Cl)ccc23)ccc1Cl`, for which the pKi is 5.85 in experiment [1] and < 4.82 in experiment [2].
Consider `O=C(O)c1cc2ccccc2o1`, for which, in experiment [3], the pKi was < 3.00.
Compound `Cc1cc(OCCCn2c(C(=O)O)cc3ccccc32)ccc1Cl` gave a pKi in experiment [3] of 5.92.
In experiment [3], `Cc1cc(OCCCn2c(C(=O)O)cc3ccccc32)cc(C)c1Cl` showed a pKi of 6.39.
As to `O=C(O)c1c(CCCOc2cccc3ccccc23)c2ccccc2n1Cc1ccccc1`, the negative-log Ki (pKi) is 6.54 in experiment [3], < 4.82 in experiment [1] and < 4.82 in experiment [2].
In experiment [1], `O=C(O)c1sc2cc(Cl)ccc2c1CCCOc1cccc2ccccc12` showed a negative logarithm of the Ki (pKi) of 6.02.
Turning to `O=C(O)c1cc2ccccc2[nH]1` [INDOLE-2-CARBOXYLIC ACID], the pKi in experiment [3] is < 3.00.
Compound `O=C(O)c1sc2ccccc2c1CCc1cccc2ccccc12` had a pKi in experiment [3] of 4.90.
For `O=C(O)c1[nH]c2cc(Cl)ccc2c1CCCOc1cccc2ccccc12`, the negative-log Ki (pKi) in experiment [1] is 6.02; in experiment [2] it was 5.17.
For `Cc1cc(OCCCc2c(C(=O)O)sc3cc(Cl)ccc23)cc(C)c1Cl`, in that order: 6.10 and 5.39.
Consider `Cc1cc(OCCC(=O)O)cc(C)c1Cl`, for which the values for the negative logarithm of the Ki (pKi) in experiment [3], in experiment [1] and in experiment [2] were 4.22, < 3.00 and < 3.00, respectively.
As to `O=C(O)c1[nH]c2cc(Cl)ccc2c1CCCOc1cccc2c1CCCC2`, the pKi in experiment [3] is 7.18.
As to `O=C(O)c1oc2ccccc2c1CCc1cccc2ccccc12`, the pKi in experiment [3] was 5.02. This pKi is 2.16 log units lower than that of the compound before.
Consider `O=C(O)c1cc2ccccc2n1CCCOc1cccc2ccccc12`, for which the negative logarithm of the Ki (pKi) in experiment [3] was 6.33.
As to `Cc1cc(OCC(=O)O)ccc1Cl`, the negative-log Ki (pKi) was 3.99 in experiment [3], < 3.00 in experiment [1] and < 3.00 in experiment [2].
In the case of `O=C(O)c1sc2cccc(Cl)c2c1Cl`, the negative-log Ki (pKi) in experiment [1] and in experiment [2] was < 3.00 throughout.
In the case of `O=C(O)c1oc2ccccc2c1CCCOc1cccc2ccccc12`, the pKi in experiment [1] is 5.37.
In experiment [3], `O=C(O)c1sc2ccccc2c1CCCc1cccc2ccccc12` had a pKi of 5.02.
As for `Cc1cc(OCCCc2c(C(=O)O)[nH]c3ccccc23)cc(C)c1Cl`, the pKi was 5.28 in experiment [1] and < 4.82 in experiment [2].
Turning to `c1ccc2c(CSc3ncn[nH]3)cccc2c1`, the negative-log Ki (pKi) is 4.07 in experiment [3], < 3.00 in experiment [1] and < 3.00 in experiment [2].
Turning to `NC(=O)c1cc2ccccc2n1CCCOc1cccc2ccccc12`, the pKi in experiment [3] was < 3.30.
Consider `Cc1cccc2c(-c3ccccc3)c(C(=O)O)[nH]c12`, for which the pKi in experiment [1] and in experiment [2] was < 3.00 throughout.
`O=C(O)c1oc2ccccc2c1CCCc1cccc2ccccc12` showed a pKi in experiment [3] of 4.84.
Turning to `Cn1c(C(=O)O)c(CCCOc2cccc3ccccc23)c2ccccc21`, the negative-log Ki (pKi) in experiment [1] and in experiment [2] was < 4.82 throughout.
For `Cc1c(C(=O)O)oc2c(C)cccc12`, the pKi in experiment [1] and in experiment [2] was < 3.00 each time.
As to `Cc1cc(OCCCc2c(C(=O)O)n(C)c3ccccc23)cc(C)c1Cl`, the pKi in experiment [1] is 5.13; in experiment [2], < 4.82.
As for `Cc1cc(OCCCc2c(C(=O)O)[nH]c3ccccc23)ccc1Cl`, the figures for the pKi in experiment [1] and in experiment [2] were 5.04 and < 4.82, respectively.
